These results are taken from patent publication US8445653B2, “Freeze-dried preparation of stabilized anthracycline compound” (Dainippon Sumitomo Pharma, priority 2002, dated 2013).

SMILES strings stand for the structures. Counter-ions that a name gives are not always drawn. Like-named read-outs stand apart in the source and are kept apart here.

For data set [1] the following is noted: injection sold in Japan dissolved in distilled water for injection or physiological saline solution; cited from earlier work.
A short description of data set [2]: pH of anthracycline injections when dissolved. The format is physicochemical. Particulars: lyophilized preparation for clinical administration dissolved in physiological saline solution or 5% glucose injection. Here is the method:
Actually, when the anthracycline anticancer agents being sold in Japan (all of them are injections) are dissolved in a distilled water for injection or a physiological saline solution, the pH values thereof are as follows (Drugs (ethical drugs) in Japan, 24 ed., 2001, edited by Japan Pharmaceutical Information Center).
(§1) On the contrary, since amrubicin hydrochloride tends to generate a deaminated compound (3) at a pH value of 3.5 or above, it is unstable at a high pH value as shown in the above anthracycline anticancer agents, and when the lyophilized preparation of amrubicin hydrochloride for clinical administration is dissolved in a physiological saline solution or a 5% glucose injection, the pH value thereof is 2.4 to 3.0.

Data set [3] can be described thus: Degradation in solution state at controlled solution temperature (Experiment 4). Format: physicochemical. As for the experimental part:
To amrubicin hydrochloride (20 mg potency) in a glass beaker were added L-cysteine hydrochloride monohydrate (3.2 mg) and lactose (50 mg) as an excipient, and the resultant was dissolved in a distilled water for injection. The pH value of the solution was slightly adjusted to about pH 3 with a trace amount of sodium hydroxide and hydrochloric acid, and the resulting solution was put into a temperature-controlled bath at 5° C., 10° C., 15° C. and 25° C. The solution was sampled at the start, 6 hours later, and 24 hours later, and the degradation products therein were measured by HPLC method. The increased amounts of the desaccharified compound (2) and the deaminated compound (3) from those at the start are shown in Table 4.

The nature of data set [4]: pH dependence of generation of deaminated compound (3) from amrubicin hydrochloride. Format: physicochemical. Here is the method:
as §1

Data set [5] is described as follows: Turbidity of injection solution prepared from lyophilized amrubicin preparation. Format: physicochemical.
[6] abbreviates: solution about pH 3, 5° C., 6 h.
The mark [7] stands for this setting: solution about pH 3, 5° C., 24 h.
The mark [8] stands for this setting: solution about pH 3, 10° C., 0 h.
[9] abbreviates: solution about pH 3, 10° C., 6 h.
Where [10] appears, read: solution about pH 3, 10° C., 24 h.
Where [11] appears, read: solution about pH 3, 15° C., 0 h.
Setting [12] is: solution about pH 3, 15° C., 6 h.
[13] abbreviates: solution about pH 3, 15° C., 24 h.
Where [14] appears, read: solution about pH 3, 25° C., 0 h.
The mark [15] stands for this setting: solution about pH 3, 25° C., 6 h.
[16] abbreviates: solution about pH 3, 25° C., 24 h.

On to `CC[C@@]1(O)C[C@H](O[C@H]2C[C@H](N(C)C)[C@H](O[C@H]3C[C@H](O)[C@H](O[C@H]4CCC(=O)[C@H](C)O4)[C@H](C)O3)[C@H](C)O2)c2c(cc3c(c2O)C(=O)c2c(O)cccc2C3=O)[C@H]1C(=O)OC` [Aclarubicin hydrochloride], for which the pH value in data set [1] is 5.0-6.5.
Consider `COc1cccc2c1C(=O)c1c(O)c3c(c(O)c1C2=O)C[C@@](O)(C(C)=O)C[C@@H]3O[C@H]1C[C@H](N)[C@H](O)[C@H](C)O1` [Daunorubicin hydrochloride], for which the pH value in data set [1] is 5.0-6.5.
Take `COc1cccc2c1C(=O)c1c(O)c3c(c(O)c1C2=O)C[C@@](O)(C(=O)CO)C[C@@H]3O[C@H]1C[C@H](N)[C@H](O)[C@H](C)O1` [Doxorubicin hydrochloride]: the pH value in data set [1] is 5.0-6.0.
As for `CC(=O)[C@]1(O)Cc2c(O)c3c(c(O)c2[C@@H](O[C@H]2C[C@H](N)[C@H](O)[C@H](C)O2)C1)C(=O)c1ccccc1C3=O` [Idarubicin hydrochloride], in data set [1], the pH value is recorded as 5.0-7.0.
With `COc1cccc2c1C(=O)c1c(O)c3c(c(O)c1C2=O)C[C@@](O)(C(=O)CO)C[C@@H]3O[C@H]1C[C@H](N)[C@H](O[C@@H]2CCCCO2)[C@H](C)O1.Cl` [Pirarubucin hydrochloride], the pH value in data set [1] was 5.0-6.5.
In turn, `CC(=O)[C@]1(N)Cc2c(O)c3c(c(O)c2[C@@H](O[C@H]2C[C@H](O)[C@H](O)CO2)C1)C(=O)c1ccccc1C3=O` [amrubicin hydrochloride, (7S,9S)-9-Acetyl-9-amino-7-[(2-deoxy-β-D-erythro-pentopyranosyl)-oxy]-7,8,9,10-tetrahydro-6,11-dihydroxy-5,12-naphthacenedione] gave a pH value in data set [2] of 2.4 to 3.0. The “Increased amount of deaminated compound (3)” value in data set [3] (solution about pH 3, 5° C., 0 h) was 0.00%; in data set [3] (setting [6]) it was 0.00%; in data set [3] (setting [7]), 0.04%; in data set [3] (setting [8]) it was 0.00%; in data set [3] (setting [9]), 0.00%; in data set [3] (setting [10]), 0.09%. For the same molecule, the “Increased amount of deaminated compound (3)” value in data set [3] (setting [11]) is on record as 0.00%; in data set [3] (setting [12]), 0.07%; in data set [3] (setting [13]), 0.24%; in data set [3] (setting [14]), 0.00%; in data set [3] (setting [15]), 0.19%; in data set [3] (setting [16]) it was 0.60%. The “Increased amount of desaccharified compound (2)” value in data set [3] (setting [6]) is listed as −0.01%; in data set [3] (setting [7]), 0.02%; in data set [3] (setting [8]), 0.00%; in data set [3] (setting [9]), 0.01%; in data set [3] (setting [10]) it was 0.01%; in data set [3] (setting [11]) it was 0.00%. The “Increased amount of desaccharified compound (2)” value in data set [3] (setting [12]) is reported as 0.00%; in data set [3] (setting [13]) it was −0.01%; in data set [3] (setting [14]), 0.00%; in data set [3] (setting [15]), 0.05%; in data set [3] (setting [16]), 0.18%; in data set [3] (solution about pH 3 with L-cysteine hydrochloride monohydrate and lactose, 5° C., 0 h), 0.00%. The “pH value at which deaminated compound (3) tends to be generated” value in data set [4] is ≥ 3.5.
Regarding `CC(=O)C1=Cc2c(O)c3c(c(O)c2[C@@H](OC2CC(O)C(O)CO2)C1)C(=O)c1ccccc1C3=O` (some centres unmarked) [deaminated compound (3)], the “Ratio at which it may cause turbidity of the injection solution” value in data set [5] was ≥ 1%.
